According to patent US20240368118A1, “CEREBLON BINDING COMPOUNDS, COMPOSITIONS THEREOF, AND METHODS OF TREATMENT THEREWITH” (CELGENE CORPORATION, priority 2021, published 2024):
Structures can show the parent of a compound that is named as a salt.

Biological target: T1, AR (Homo sapiens, UniProt P10275)
T1 construct: endogenous in cells; host or cells: VCaP cells
T1 sequence (P10275 1-920): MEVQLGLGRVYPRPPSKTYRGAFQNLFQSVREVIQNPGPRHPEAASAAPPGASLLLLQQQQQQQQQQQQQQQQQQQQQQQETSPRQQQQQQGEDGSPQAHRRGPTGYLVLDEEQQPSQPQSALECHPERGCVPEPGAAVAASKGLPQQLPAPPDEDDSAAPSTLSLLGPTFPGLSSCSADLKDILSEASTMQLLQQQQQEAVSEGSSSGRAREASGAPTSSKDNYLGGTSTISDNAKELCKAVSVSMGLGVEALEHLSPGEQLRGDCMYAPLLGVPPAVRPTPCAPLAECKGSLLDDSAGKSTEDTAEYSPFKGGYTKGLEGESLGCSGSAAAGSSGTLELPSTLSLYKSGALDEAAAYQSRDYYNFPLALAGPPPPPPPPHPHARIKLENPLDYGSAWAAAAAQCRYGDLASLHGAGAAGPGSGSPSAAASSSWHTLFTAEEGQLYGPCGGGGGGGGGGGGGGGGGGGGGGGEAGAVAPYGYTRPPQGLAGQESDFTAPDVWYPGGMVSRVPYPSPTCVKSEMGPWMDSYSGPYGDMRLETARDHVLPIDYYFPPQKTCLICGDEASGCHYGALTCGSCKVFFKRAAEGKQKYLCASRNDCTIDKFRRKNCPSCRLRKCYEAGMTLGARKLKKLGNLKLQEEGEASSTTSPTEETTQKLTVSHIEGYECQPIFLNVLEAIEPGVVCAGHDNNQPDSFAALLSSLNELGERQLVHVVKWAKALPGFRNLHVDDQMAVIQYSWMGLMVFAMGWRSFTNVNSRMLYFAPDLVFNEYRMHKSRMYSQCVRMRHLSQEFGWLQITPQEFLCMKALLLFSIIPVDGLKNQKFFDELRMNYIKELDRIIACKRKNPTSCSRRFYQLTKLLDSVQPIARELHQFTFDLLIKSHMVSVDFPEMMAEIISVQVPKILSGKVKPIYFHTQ
Assay: VCAP AR Degradation Assay
Type: cell-based
Settings: VCaP cells, 24 h; for DC50: AR ELISA, concentration when AR level = 50% of DMSO control; for Ymin: lowest AR level normalized to DMSO control
Procedure: VCAP AR Degradation Assay. Test compounds were pre-dispensed into a Corning CellBind 96-well clear bottom plate (Cat #3300) using an acoustic dispenser to make a 10-point concentration series at 1:3 dilution for each compound. The final top concentration of each compound was 5 μM. DMSO at a final concentration of 0.1% was used as a control. VCaP cells cultured in DMEM with 8% fetal bovine serum (FBS) were seeded at 50K cells per well in a 200 μL volume into the compound plate and incubated at 37° C. in a C02 incubator for 24 h. The medium was carefully removed from the cells and the plate was placed on ice. One hundred μL of ice-cold 1× cell lysis buffer from Cell Signaling Technologies (Cat #9803) was added to each well of the cells and the plate was incubated at 4° C. on a shaker for 1 h. Fifteen μL of cell lysate was used for AR ELISA detection using a PathScan Total Sandwich AR ELISA kit (Cell Signaling Technology, Cat #12580). AR levels in compound-treated wells were normalized to that of DMSO control and expressed as percent of control (PoC) (y). A Four Parameter Logistic Model (Sigmoidal Dose-Response Model) was used to determine the compound's DC50, and EC50, using the following equation: […]
The lowest measured AR level normalized to DMSO control in response to compound treatment, termed Y value, was used to characterize the compound-mediated AR degradation efficiency.

SMILES	DC50	Ymin (class symbols)	Ymin (given as numbers)
C[C@@H]1CN(CCC[C@H]2CC[C@H](N3C(=S)N(c4cnc(C#N)c(C(F)(F)F)c4)C(=O)C3(C)C)CC2)C[C@H](C)N1CC(=O)Nc1ccc(C2CCC(=O)NC2=O)cc1 (stereo partly drawn) [Cmpd 15, 2-((2R,6S)-4-(3-(trans-4-(3-(6-Cyano-5-(trifluoromethyl)pyridin-3-yl)-5,5-dimethyl-4-oxo-2-thioxoimidazolidin-1-yl)cyclohexyl)propyl)-2,6-dimethylpiperazin-1-yl)-N-(4-(2,6-dioxopiperidin-3-yl)phenyl)acetamide hydrochloride]	≤ 5 nM	** (20%<Y≤30%)	–
C[C@@H]1CN(CCC[C@H]2CC[C@H](N3C(=S)N(c4cnc(C#N)c(Cl)c4)C(=O)C3(C)C)CC2)C[C@H](C)N1CC(=O)Nc1ccc(C2CCC(=O)NC2=O)cc1 (stereo partly drawn) [Cmpd 16, 2-((2R,6S)-4-(3-(trans-4-(3-(5-Chloro-6-cyanopyridin-3-yl)-5,5-dimethyl-4-oxo-2-thioxoimidazolidin-1-yl)cyclohexyl)propyl)-2,6-dimethylpiperazin-1-yl)-N-(4-(2,6-dioxopiperidin-3-yl)phenyl)acetamide hydrochloride]	5 to 15 nM	*** (30%<Y<80%)	–
C[C@@H]1CN(CCC[C@H]2CC[C@H](N3C(=S)N(c4ccc(C#N)c(Cl)c4)C(=O)C3(C)C)CC2)C[C@H](C)N1CC(=O)Nc1ccc(C2CCC(=O)NC2=O)cc1 (stereo partly drawn) [Cmpd 17, 2-((2S,6R)-4-(3-(trans-4-(3-(3-Chloro-4-cyanophenyl)-5,5-dimethyl-4-oxo-2-thioxoimidazolidin-1-yl)cyclohexyl)propyl)-2,6-dimethylpiperazin-1-yl)-N-(4-(2,6-dioxopiperidin-3-yl)phenyl)acetamide hydrochloride]	5 to 15 nM	*** (30%<Y<80%)	–
C[C@@H]1CN(CCCO[C@H]2CC[C@H](N3C(=S)N(c4ccc(C#N)c(C(F)(F)F)c4)C(=O)C3(C)C)CC2)C[C@H](C)N1CC(=O)Nc1cccc(N2CCC(=O)NC2=O)c1 [Cmpd 19, 2-((2R,6S)-4-(3-((trans-4-(3-(4-Cyano-3-(trifluoromethyl)phenyl)-5,5-dimethyl-4-oxo-2-thioxoimidazolidin-1-yl)cyclohexyl)oxy)propyl)-2,6-dimethylpiperazin-1-yl)-N-(3-(2,4-dioxotetrahydropyrimidin-1(2H)-yl)phenyl)acetamide hydrochloride]	≤ 5 nM	** (20%<Y≤30%)	–
C[C@@H]1CN(CCCO[C@H]2CC[C@H](N3C(=S)N(c4ccc(C#N)c(C(F)(F)F)c4)C(=O)C3(C)C)CC2)C[C@H](C)N1CC(=O)Nc1cccc(C2CCC(=O)NC2=O)c1 (stereo partly drawn) [Cmpd 20, 2-((2R,6S)-4-(3-((trans-4-(3-(4-Cyano-3-(trifluoromethyl)phenyl)-5,5-dimethyl-4-oxo-2-thioxoimidazolidin-1-yl)cyclohexyl)oxy)propyl)-2,6-dimethylpiperazin-1-yl)-N-(3-(2,6-dioxopiperidin-3-yl)phenyl)acetamide hydrochloride]	≤ 5 nM	** (20%<Y≤30%)	–
C[C@@H]1C[C@@H](CCO[C@H]2CC[C@H](N3C(=S)N(c4ccc(C#N)c(C(F)(F)F)c4)C(=O)C3(C)C)CC2)C[C@H](C)N1CC(=O)Nc1ccc(C2CCC(=O)NC2=O)cc1 (stereo partly drawn) [Cmpd 21, 2-((2R,4s,6S)-4-(2-((trans-4-(3-(4-Cyano-3-(trifluoromethyl)phenyl)-5,5-dimethyl-4-oxo-2-thioxoimidazolidin-1-yl)cyclohexyl)oxy)ethyl)-2,6-dimethylpiperidin-1-yl)-N-(4-(2,6-dioxopiperidin-3-yl)phenyl)acetamide hydrochloride]	≤ 5 nM	* (0<Y≤20%)	–
C[C@@H]1C[C@H](CCO[C@H]2CC[C@H](N3C(=S)N(c4ccc(C#N)c(C(F)(F)F)c4)C(=O)C3(C)C)CC2)C[C@H](C)N1CC(=O)Nc1ccc(C2CCC(=O)NC2=O)cc1 (stereo partly drawn) [Cmpd 22, 2-((2R,4r,6S)-4-(2-((trans-4-(3-(4-Cyano-3-(trifluoromethyl)phenyl)-5,5-dimethyl-4-oxo-2-thioxoimidazolidin-1-yl)cyclohexyl)oxy)ethyl)-2,6-dimethylpiperidin-1-yl)-N-(4-(2,6-dioxopiperidin-3-yl)phenyl)acetamide hydrochloride]	≤ 5 nM	* (0<Y≤20%)	–
CC1(C)C(=O)N(c2ccc(C#N)c(C(F)(F)F)c2)C(=S)N1[C@H]1CC[C@H](OCCN2CCN(CC(=O)Nc3ccc(C4CCC(=O)NC4=O)cc3)[C@@H](C(F)(F)F)C2)CC1 (stereo partly drawn) [Cmpd 23, 2-((R)-4-(2-((trans-4-(3-(4-Cyano-3-(trifluoromethyl)phenyl)-5,5-dimethyl-4-oxo-2-thioxoimidazolidin-1-yl)cyclohexyl)oxy)ethyl)-2-(trifluoromethyl)piperazin-1-yl)-N-(4-(2,6-dioxopiperidin-3-yl)phenyl)acetamide hydrochloride]	5 to 15 nM	* (0<Y≤20%)	–
C[C@@H]1CN(CCCC[C@H]2CC[C@H](N3C(=S)N(c4ccc(C#N)c(C(F)(F)F)c4)C(=O)C3(C)C)CC2)C[C@H](C)N1CC(=O)Nc1cccc(C2CCC(=O)NC2=O)c1 (stereo partly drawn) [Cmpd 24, 2-((2R,6S)-4-(4-((trans)-4-(3-(4-Cyano-3-(trifluoromethyl)phenyl)-5,5-dimethyl-4-oxo-2-thioxoimidazolidin-1-yl)cyclohexyl)butyl)-2,6-dimethylpiperazin-1-yl)-N-(3-(2,6-dioxopiperidin-3-yl)phenyl)acetamide]	≤ 5 nM	–	15 % of DMSO control
C[C@@H]1CN(CCCC[C@H]2CC[C@H](N3C(=S)N(c4ccc(C#N)c(C(F)(F)F)c4)C(=O)C3(C)C)CC2)C[C@H](C)N1CC(=O)Nc1cccc(N2CCC(=O)NC2=O)c1 [Cmpd 25, 2-((2R,6S)-4-(4-((trans)-4-(3-(4-Cyano-3-(trifluoromethyl)phenyl)-5,5-dimethyl-4-oxo-2-thioxoimidazolidin-1-yl)cyclohexyl)butyl)-2,6-dimethylpiperazin-1-yl)-N-(3-(2,4-dioxotetrahydropyrimidin-1(2H)-yl)phenyl)acetamide]	5 to 15 nM	–	24 % of DMSO control
C[C@@H]1CN(CCCC[C@H]2CC[C@H](N3C(=S)N(c4ccc(C#N)c(C(F)(F)F)c4)C(=O)C3(C)C)CC2)C[C@H](C)N1CC(=O)Nc1ccc(N2CCC(=O)NC2=O)cc1 [Cmpd 26, 2-((2R,6S)-4-(4-((trans)-4-(3-(4-Cyano-3-(trifluoromethyl)phenyl)-5,5-dimethyl-4-oxo-2-thioxoimidazolidin-1-yl)cyclohexyl)butyl)-2,6-dimethylpiperazin-1-yl)-N-(4-(2,4-dioxotetrahydropyrimidin-1(2H)-yl)phenyl)acetamide]	5 to 15 nM	–	25 % of DMSO control
C[C@@H]1C[C@H](CCO[C@H]2CC[C@H](N3C(=S)N(c4cnc(C#N)c(C(F)(F)F)c4)C(=O)C3(C)C)CC2)C[C@H](C)N1CC(=O)Nc1ccc(C2CCC(=O)NC2=O)cc1 (stereo partly drawn) [Cmpd 27, 2-((2R,4r,6S)-4-(2-(((trans)-4-(3-(6-Cyano-5-(trifluoromethyl)pyridin-3-yl)-5,5-dimethyl-4-oxo-2-thioxoimidazolidin-1-yl)cyclohexyl)oxy)ethyl)-2,6-dimethylpiperidin-1-yl)-N-(4-(2,6-dioxopiperidin-3-yl)phenyl)acetamide]	≤ 5 nM	–	11 % of DMSO control
CC1(C)C(=O)N(c2cnc(C#N)c(C(F)(F)F)c2)C(=S)N1[C@H]1CC[C@H](OCCN2CCN(CC(=O)Nc3ccc(C4CCC(=O)NC4=O)cc3)[C@@H](C(F)(F)F)C2)CC1 (stereo partly drawn) [Cmpd 28, 2-((R)-4-(2-(((trans)-4-(3-(6-Cyano-5-(trifluoromethyl)pyridin-3-yl)-5,5-dimethyl-4-oxo-2-thioxoimidazolidin-1-yl)cyclohexyl)oxy)ethyl)-2-(trifluoromethyl)piperazin-1-yl)-N-(4-(2,6-dioxopiperidin-3-yl)phenyl)acetamide]	≤ 5 nM	–	20 % of DMSO control
